In patent publication US20130023491A1, “BETA-CELL REPLICATION PROMOTING COMPOUNDS AND METHODS OF THEIR USE” (President and Fellows of Harvard College, priority 2009, published 2013):
Where two headings read alike, the source gives them in different places.

How the values were obtained:
[1] = system: β-cells (dispersed rat islet cells); assay: primary islet β-cell replication assay (PDX-1/ki-67 co-staining, automated imaging); assay type: cell-based
Description: Rat islets were isolated as previously described in Gotoh M, Maki T, Kiyoizumi T, Satomi S, Monaco A P: An improved method for isolation of mouse pancreatic islets. Transplantation 40:437-438, 1985, contents of which are herein incorporated by reference in their entirety. Isolated islets were cultured overnight in a tissue culture incubator. The following morning, islets were trypsinized into cellular clusters of 1-3 cells, re-suspended in islet media (Mediatech 99-786-CV; 10% FBS serum (Valley Biomedial BS3033); 8.3 mM Glucose (Sigma G7528); 1× Penicillin/Streptomycin (Invitrogen 15070-063); 1× Glutamax (Invitrogen 35050-079)) and plated into the wells of a 96-well plate (Sigma CLS3904) that had been coated with 804G (a rat bladder carcinoma cell line) conditioned media. The cellular plating density was 60 k cells/well and greater than 95% viability was confirmed at the time of plating. […] For screening, compounds were tested at 1 uM concentration in duplicate. After 24-hours of compound treatment, cells were fixed with fresh 4% PFA (Electron Microscopy Services 15710) for 20 minutes and washed with PBS (VWR 45000-446). Antigen retrieval was performed by heating the cells to 90 degrees Celsius in 0.1 mM EDTA (Ambion AM9260G) in PBS. Cells were then washed and permeabalized with PBS/0.3% Triton X-100 (J.T.Baker X198-07) for 15 minutes. Immunocytochemical staining was then performed as follows. Antigen blocking was performed with 5% normal donkey serum (Jackson ImmunoResearch 017-000-121) in PBS for an hour. Staining was performed by overnight incubation with primary antibody at 4 degrees Celsius. For the primary screen, PDX-1 antibody (R&D AF2419) was used to reveal beta-cells and ki-67 antibody (BD Bioscience 556003) to visualize proliferating cells. Without wishing to be bound by theory, the failure of prior beta-cell replication screens is primarily a consequence of using a cytoplasmic marker (Insulin) as the β-cell identifier. The use of a cytoplasmic marker prevents accurate attribution of nuclear replication to a specific cell identity i.e., in dense culture it is impossible to attribute a cytoplasm to a specific nucleus given the proximity to multiple nuclei. Additional Immunohistochemistry antibodies included Phosphohistone 3 (Millipore 06-570), Insulin (Dako A0564), Glucagon (Millipore 4031-01F) and Vimentin (Millipore ab5733). For western blotting anti-bodies included ADK (Abcam ab38010, ab64825) and RAN (BD Bioscience 610340) as a loading control.
Once compound-treated islet cells were stained, β-cell replication was assessed via automated image acquisition and analysis using a Cellomics ArrayScanVTI. The acquisition thresholds/parameters were established such that the computer-based calls of replication events were consistent with human-based calls. The parameters used were directed at the identification of (1) PDX-1+ cells and (2) ki-67 positive staining within the PDX-1 positive area. The algorithm was a three step process. First the nuclear area was predicted by the software based upon the expected PDX-1 staining pattern. Second PDX-1 positive cells (selected objects) were counted based upon the average staining intensity within the predicted nuclear area (Note: total signal intensity was essentially equal in quality but was not typically used). Third, the number of PDX-1 positive cells (selected objects) that simultaneously were Ki-67 positive was determined by determining the average fluorescence intensity of ki-67 staining within the predicted nuclear area (again, total intensity was also occasionally used with equal efficacy). The specific thresholds (fluorescence intensities) varied from experiment to experiment. In general, the basal replication rate was set at roughly 1% i.e., the algorithm was varied until 1% of DMSO treated PDX+ cells were reported to be double positive for PDX-1 and ki67. […]

[2] = system: murine hepatocytes
Description: Total cell number was assessed with DAPI and replicating cells were ki-67^+. The Cellomics ArrayScanVTI was used for image acquisition and analysis.

[3] = system: mouse dermal fibroblasts; assay: Ki-67 proliferation of mouse dermal fibroblasts; assay type: cell-based; conditions: A10 0.019-10 uM
Description: Using a protocol similar to as described in Example 1, β-cells or mouse dermal fibroblasts were treated with 10 uM, 5 uM, 2.5 uM, 1.25 um, 0.625 uM, 0.3125 uM, 0.156 uM, 0.078 uM, 0.04 uM, or 0.019 uM of A10.

Nc1ncnc2c1c(I)cn2[C@@H]1O[C@H](CO)[C@@H](O)[C@H]1O [A10, 5-iodotubercidin]
induction of β-cell replication in the screening assay ([1]; 1 uM, 24 hours): 2.3 fold | induction of the replication rate above the base-line rate, combination with high glucose ([1]; 5-IT 2 μM plus high glucose): 5 fold | β-cell replication effect of addition of 5-IT to the GLP-1R agonists ([1]; 24 h, 5-IT 2 μM plus GLP-1 or Ex-4): ~4 fold | increase of β-cell replication ([1]; 24 h, 5-IT 2 μM, GLP-1 and Ex-4 20 nM and 4 nM, normalized to DMSO): ~2.5 fold | effect of glucose concentration on % beta-cell replication in treated samples ([1]; A10 2 μM, 0-25 mM glucose): little effect | % Ki-67 positive cells versus serum concentration ([1]; A10 2 μM, 0.2%, 2.0% or 20% serum): increased with increasing serum concentration | % of Ki-67 positive β-cells (PDX-1 and Ki-67 positive cells), dose curve ([1]; A10 0.019-10 uM, B8 0.23-30 uM): increase in a dose dependent manner | EC50 ([1]; FIG. 13c dose-response curves, read-out: EC50, β-cell proliferation in rat islet cultures): 4.7 µM | EC50 ([1]; dose curves FIG. 2a (A10) and FIG. 3 (B8), Ki-67 positive β-cells, read-out: EC50 for β-cell proliferation): 0.47 µM | tolerability by cultured hepatocytes [2]: not well tolerated | % Ki-67 positive mouse dermal fibroblasts [3]: did not change
